Assay results reported in PubChem BioAssay (NCI).
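Each compound was tested at five concentrations against cells in 96-well plates for 48 hours. Abbreviation: GI50, concentration required for 50% inhibition of growth. TGI marks complete inhibition of growth.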

Experiments:
Assay in all cases: NCI-60 cell line screen, 48 h
BT-549 breast = system: BT-549 breast
LOX IMVI melanoma = system: LOX IMVI melanoma
MALME-3M melanoma = system: MALME-3M melanoma
K-562 leukemia = system: K-562 leukemia
KM12 colon = system: KM12 colon
SR leukemia = system: SR leukemia
SK-MEL-28 melanoma = system: SK-MEL-28 melanoma
EKVX NSCLC = system: EKVX NSCLC
NCI/ADR-RES ovarian = system: NCI/ADR-RES ovarian
SK-MEL-5 melanoma = system: SK-MEL-5 melanoma
COLO 205 colon = system: COLO 205 colon
MDA-MB-231 breast = system: MDA-MB-231 breast
U251 CNS = system: U251 CNS
SF-295 CNS = system: SF-295 CNS
PC-3 prostate = system: PC-3 prostate
T-47D breast = system: T-47D breast
DU-145 prostate = system: DU-145 prostate
TK-10 renal = system: TK-10 renal
IGROV1 ovarian = system: IGROV1 ovarian
HS 578T breast = system: HS 578T breast
ACHN renal = system: ACHN renal
NCI-H460 lung = system: NCI-H460 lung
MCF7 breast = system: MCF7 breast
SW-620 colon = system: SW-620 colon
A549 NSCLC = system: A549 NSCLC
SNB-19 CNS = system: SNB-19 CNS
HCT-116 colon = system: HCT-116 colon
SF-268 CNS = system: SF-268 CNS
SN12C renal = system: SN12C renal
NCI-H226 lung = system: NCI-H226 lung
A498 renal = system: A498 renal
UACC-62 melanoma = system: UACC-62 melanoma
MDA-MB-435 = system: MDA-MB-435
OVCAR-4 ovarian = system: OVCAR-4 ovarian
HCC-2998 colon = system: HCC-2998 colon
NCI-H23 lung = system: NCI-H23 lung
UACC-257 melanoma = system: UACC-257 melanoma
NCI-H522 lung = system: NCI-H522 lung
SF-539 CNS = system: SF-539 CNS
MOLT-4 leukemia = system: MOLT-4 leukemia
HOP-92 NSCLC = system: HOP-92 NSCLC
SK-OV-3 ovarian = system: SK-OV-3 ovarian
CAKI-1 renal = system: CAKI-1 renal
OVCAR-5 ovarian = system: OVCAR-5 ovarian
OVCAR-3 ovarian = system: OVCAR-3 ovarian
HOP-62 NSCLC = system: HOP-62 NSCLC
CCRF-CEM leukemia = system: CCRF-CEM leukemia
OVCAR-8 ovarian = system: OVCAR-8 ovarian
M14 melanoma = system: M14 melanoma
RPMI-8226 leukemia = system: RPMI-8226 leukemia
HCT-15 colon = system: HCT-15 colon
HT29 colon = system: HT29 colon
SK-MEL-2 melanoma = system: SK-MEL-2 melanoma
786-0 renal = system: 786-0 renal
UO-31 renal = system: UO-31 renal
RXF 393 renal = system: RXF 393 renal
HL-60(TB) leukemia = system: HL-60(TB) leukemia

In the case of `COc1ccc(C2C3=C(COC3=O)N(CCO)c3cc4c(cc32)OCCO4)cc1OC` (configuration not stated), the GI50 (BT-549 breast) is reported as 5.06 µM, the TGI (BT-549 breast) is reported as > 47.9 µM and the GI50 (LOX IMVI melanoma) is reported as 3.84 µM. For the same compound, the TGI (LOX IMVI melanoma) was > 50 µM, the GI50 (MALME-3M melanoma) was > 50 µM and the TGI (MALME-3M melanoma) was > 50 µM. The GI50 (K-562 leukemia) was 1.38 µM, the TGI (K-562 leukemia) was > 50 µM and the GI50 (KM12 colon) was 1.35 µM. For the same compound, the TGI (KM12 colon) was > 38.7 µM, the GI50 (SR leukemia) was 0.741 µM and the TGI (SR leukemia) was 35.8 µM. The GI50 (SK-MEL-28 melanoma) was > 50 µM, the TGI (SK-MEL-28 melanoma) was > 50 µM and the GI50 (EKVX NSCLC) was 5.98 µM. The TGI (EKVX NSCLC) was > 50 µM, the GI50 (NCI/ADR-RES ovarian) was 11.4 µM and the TGI (NCI/ADR-RES ovarian) was > 50 µM. For the same compound, the GI50 (SK-MEL-5 melanoma) was 0.906 µM, the TGI (SK-MEL-5 melanoma) was > 50 µM and the GI50 (COLO 205 colon) was 1.34 µM. It also gave a TGI (COLO 205 colon) of 3.62 µM, a GI50 (MDA-MB-231 breast) of 6.78 µM and a TGI (MDA-MB-231 breast) of 36.5 µM. The GI50 (U251 CNS) was 2.89 µM, the TGI (U251 CNS) was > 50 µM and the GI50 (SF-295 CNS) was 0.922 µM. For the same compound, the TGI (SF-295 CNS) was 12 µM, the GI50 (PC-3 prostate) was 1.58 µM and the TGI (PC-3 prostate) was > 50 µM. For the same compound, the GI50 (T-47D breast) was 2.17 µM, the TGI (T-47D breast) was > 50 µM and the GI50 (DU-145 prostate) was 1.93 µM. The TGI (DU-145 prostate) was 14.9 µM, the GI50 (TK-10 renal) was > 10.2 µM and the TGI (TK-10 renal) was > 36.3 µM. The GI50 (IGROV1 ovarian) was 1.91 µM, the TGI (IGROV1 ovarian) was 14.9 µM and the GI50 (HS 578T breast) was 1.44 µM. The TGI (HS 578T breast) was > 50 µM, the GI50 (ACHN renal) was > 50 µM and the TGI (ACHN renal) was > 50 µM. For the same compound, the GI50 (NCI-H460 lung) was 1.84 µM, the TGI (NCI-H460 lung) was > 18.9 µM and the GI50 (MCF7 breast) was 0.634 µM. The TGI (MCF7 breast) was > 50 µM, the GI50 (SW-620 colon) was 1.8 µM and the TGI (SW-620 colon) was > 50 µM. For the same compound, the GI50 (A549 NSCLC) was 5.11 µM, the TGI (A549 NSCLC) was > 50 µM and the TGI (SNB-19 CNS) was > 30.5 µM. For the same compound, the GI50 (HCT-116 colon) was 1.96 µM, the TGI (HCT-116 colon) was > 50 µM and the GI50 (SF-268 CNS) was 4.3 µM. For the same compound, the TGI (SF-268 CNS) was > 50 µM, the GI50 (SN12C renal) was > 15.7 µM and the TGI (SN12C renal) was > 50 µM. The GI50 (NCI-H226 lung) was > 50 µM, the TGI (NCI-H226 lung) was > 50 µM and the GI50 (A498 renal) was 1.61 µM. For the same compound, the TGI (A498 renal) was > 15.6 µM, the TGI (UACC-62 melanoma) was > 50 µM and the GI50 (MDA-MB-435) was 0.255 µM. For the same compound, the TGI (MDA-MB-435) was 1.78 µM, the GI50 (OVCAR-4 ovarian) was 3.67 µM and the TGI (OVCAR-4 ovarian) was > 50 µM. For the same compound, the GI50 (HCC-2998 colon) was 1.76 µM, the TGI (HCC-2998 colon) was 8.67 µM and the GI50 (NCI-H23 lung) was 2.25 µM. For the same compound, the TGI (NCI-H23 lung) was > 50 µM, the GI50 (UACC-257 melanoma) was 2.4 µM and the TGI (UACC-257 melanoma) was > 50 µM. The GI50 (NCI-H522 lung) was 0.27 µM, the TGI (NCI-H522 lung) was 1.38 µM and the GI50 (SF-539 CNS) was 1.69 µM. For the same compound, the TGI (SF-539 CNS) was > 18 µM, the GI50 (MOLT-4 leukemia) was 2.85 µM and the TGI (MOLT-4 leukemia) was > 47.4 µM. For the same compound, the GI50 (HOP-92 NSCLC) was 0.837 µM, the TGI (HOP-92 NSCLC) was > 50 µM and the GI50 (SK-OV-3 ovarian) was 1.98 µM. The TGI (SK-OV-3 ovarian) was > 50 µM, the GI50 (CAKI-1 renal) was 4.03 µM and the TGI (CAKI-1 renal) was > 50 µM. For the same compound, the GI50 (OVCAR-5 ovarian) was 18.4 µM, the TGI (OVCAR-5 ovarian) was > 50 µM and the GI50 (OVCAR-3 ovarian) was 1.11 µM. For the same compound, the TGI (OVCAR-3 ovarian) was 3 µM, the GI50 (HOP-62 NSCLC) was 9.58 µM and the TGI (HOP-62 NSCLC) was > 50 µM. The GI50 (CCRF-CEM leukemia) was 2.02 µM, the TGI (CCRF-CEM leukemia) was > 50 µM and the GI50 (OVCAR-8 ovarian) was 4.46 µM. For the same compound, the TGI (OVCAR-8 ovarian) was > 50 µM, the GI50 (M14 melanoma) was 1.94 µM and the TGI (M14 melanoma) was > 30.7 µM. The GI50 (RPMI-8226 leukemia) was 1.91 µM, the TGI (RPMI-8226 leukemia) was > 12.6 µM and the GI50 (HCT-15 colon) was 5.39 µM. The TGI (HCT-15 colon) was > 50 µM, the GI50 (HT29 colon) was 1.64 µM and the TGI (HT29 colon) was > 14.9 µM. For the same compound, the GI50 (SK-MEL-2 melanoma) was 0.979 µM, the TGI (SK-MEL-2 melanoma) was 3.65 µM and the GI50 (786-0 renal) was 2.48 µM. The TGI (786-0 renal) was > 50 µM, the GI50 (UO-31 renal) was 4.09 µM and the TGI (UO-31 renal) was > 50 µM. For the same compound, the GI50 (RXF 393 renal) was 0.807 µM, the TGI (RXF 393 renal) was 2.86 µM and the GI50 (HL-60(TB) leukemia) was 1.28 µM. The TGI (HL-60(TB) leukemia) was 5.65 µM.
